In ChEMBL document CHEMBL3885861, “Open TG-GATES”:

Organism: Rattus norvegicus
Test: Open TG-GATES - Regimen: Single
Assay type: toxicity, organism-based, Sprague-Dawley
Parameters: regimen Single, gender Male, age 6 weeks
Conditions: in vivo, po, 0 mg/kg, route gavage, dose level Control; for APTT / Bas / Eos / Fbg / Hb / Ht / Lym / MCH / MCHC / MCV / Mono / Neu / PT / Plat / RBC / Ret / WBC: tissue Blood; for KIDNEY_L / KIDNEY_R / KIDNEY_TOTAL: tissue Kidney; for LIVER: tissue Liver; for A/G / ALP / ALT / AST / BUN / CRE / Ca / Cl / DBIL / GLC / IP / K / LDH / Na / PL / RALB / TBIL / TC / TG / TP / gamma-GTP: tissue Plasma

Q: Which TERMINAL_BW (3 h) does the source give for Clc1c(Cl)c(Cl)c(Cl)c(Cl)c1Cl [PERCHLOROBENZENE] here?
A: 219.4 g

Q: What about the APTT (3 h) of the same compound?
A: 19.3 s

Q: What about the Bas (3 h) of the same compound?
A: 0.2%

Q: And the Eos (3 h)?
A: 0.8%

Q: And the Fbg (3 h)?
A: 218.8 mg/dL

Q: And the Hb (3 h)?
A: 13.5 g/dL

Q: What about the Ht (3 h) of the same compound?
A: 38.6%

Q: And the Lym (3 h)?
A: 75.4%

Q: And the MCH (3 h)?
A: 21.1 pg

Q: What about the MCHC (3 h) of the same compound?
A: 34.9%

Q: What about the MCV (3 h) of the same compound?
A: 60.3 fL

Q: And the Mono (3 h)?
A: 3.2%

Q: And the Neu (3 h)?
A: 18.6%

Q: What about the PT (3 h) of the same compound?
A: 11.9 s

Q: What about the Plat (3 h) of the same compound?
A: 122 x10_4/uL

Q: What about the RBC (3 h) of the same compound?
A: 639.6 x10_4/ul

Q: What about the Ret (3 h) of the same compound?
A: 7.1%

Q: And the WBC (3 h)?
A: 76.5 x10_2/uL

Q: And the KIDNEY_L (3 h)?
A: 1 g

Q: And the KIDNEY_R (3 h)?
A: 1 g

Q: And the KIDNEY_TOTAL (3 h)?
A: 2 g

Q: What about the LIVER (3 h) of the same compound?
A: 9.9 g

Q: And the A/G (3 h)?
A: 1.7

Q: And the ALP (3 h)?
A: 1008.2 IU/L

Q: And the ALT (3 h)?
A: 42.8 IU/L

Q: And the AST (3 h)?
A: 78 IU/L

Q: What about the BUN (3 h) of the same compound?
A: 11.4 mg/dL

Q: And the CRE (3 h)?
A: 0.4 mg/dL

Q: What about the Ca (3 h) of the same compound?
A: 10.9 mg/dL

Q: And the Cl (3 h)?
A: 103.4 meq/L

Q: What about the DBIL (3 h) of the same compound?
A: 0.07 mg/dL

Q: What about the GLC (3 h) of the same compound?
A: 187.2 mg/dL

Q: And the IP (3 h)?
A: 8.4 mg/dL

Q: What about the K (3 h) of the same compound?
A: 4 meq/L

Q: And the LDH (3 h)?
A: 216.2 IU/L

Q: And the Na (3 h)?
A: 140.6 meq/L

Q: And the PL (3 h)?
A: 156.8 mg/dL

Q: What about the RALB (3 h) of the same compound?
A: 3.5 g/dL

Q: And the TBIL (3 h)?
A: 0.1 mg/dL

Q: And the TC (3 h)?
A: 76.8 mg/dL

Q: What about the TG (3 h) of the same compound?
A: 103.4 mg/dL

Q: And the TP (3 h)?
A: 5.5 g/dL

Q: And the gamma-GTP (3 h)?
A: 1 IU/L

Q: What about the TERMINAL_BW (6 h) of the same compound?
A: 219.4 g

Q: What about the APTT (6 h) of the same compound?
A: 19.5 s

Q: And the Bas (6 h)?
A: 0.2%

Q: What about the Eos (6 h) of the same compound?
A: 0.6%

Q: And the Fbg (6 h)?
A: 230.4 mg/dL

Q: And the Hb (6 h)?
A: 13.5 g/dL

Q: What about the Ht (6 h) of the same compound?
A: 38.4%

Q: And the Lym (6 h)?
A: 79.6%

Q: And the MCH (6 h)?
A: 21.7 pg

Q: What about the MCHC (6 h) of the same compound?
A: 35.3%

Q: What about the MCV (6 h) of the same compound?
A: 61.5 fL

Q: What about the Mono (6 h) of the same compound?
A: 3.2%

Q: What about the Neu (6 h) of the same compound?
A: 14.8%

Q: What about the PT (6 h) of the same compound?
A: 11.7 s

Q: What about the Plat (6 h) of the same compound?
A: 134.1 x10_4/uL

Q: And the RBC (6 h)?
A: 624 x10_4/ul

Q: What about the Ret (6 h) of the same compound?
A: 7.2%

Q: What about the WBC (6 h) of the same compound?
A: 106.3 x10_2/uL

Q: What about the KIDNEY_L (6 h) of the same compound?
A: 1 g

Q: What about the KIDNEY_R (6 h) of the same compound?
A: 1 g

Q: What about the KIDNEY_TOTAL (6 h) of the same compound?
A: 2 g

Q: What about the LIVER (6 h) of the same compound?
A: 9.6 g

Q: What about the A/G (6 h) of the same compound?
A: 1.5

Q: What about the ALP (6 h) of the same compound?
A: 958.2 IU/L

Q: What about the ALT (6 h) of the same compound?
A: 32 IU/L

Q: And the AST (6 h)?
A: 70.6 IU/L

Q: What about the BUN (6 h) of the same compound?
A: 9.2 mg/dL

Q: What about the CRE (6 h) of the same compound?
A: 0.4 mg/dL

Q: And the Ca (6 h)?
A: 10.6 mg/dL

Q: What about the Cl (6 h) of the same compound?
A: 102.6 meq/L

Q: And the DBIL (6 h)?
A: 0.06 mg/dL

Q: What about the GLC (6 h) of the same compound?
A: 192.8 mg/dL

Q: What about the IP (6 h) of the same compound?
A: 9.4 mg/dL

Q: What about the K (6 h) of the same compound?
A: 4.2 meq/L

Q: What about the LDH (6 h) of the same compound?
A: 216.4 IU/L

Q: What about the Na (6 h) of the same compound?
A: 140.2 meq/L

Q: What about the PL (6 h) of the same compound?
A: 149.6 mg/dL

Q: And the RALB (6 h)?
A: 3.3 g/dL

Q: And the TBIL (6 h)?
A: 0.1 mg/dL

Q: And the TC (6 h)?
A: 77.6 mg/dL

Q: And the TG (6 h)?
A: 71.2 mg/dL

Q: What about the TP (6 h) of the same compound?
A: 5.6 g/dL

Q: And the gamma-GTP (6 h)?
A: 1.2 IU/L

Q: What about the TERMINAL_BW (9 h) of the same compound?
A: 215.4 g

Q: And the APTT (9 h)?
A: 21.3 s

Q: And the Bas (9 h)?
A: 0.2%

Q: What about the Eos (9 h) of the same compound?
A: 1%

Q: And the Fbg (9 h)?
A: 226.6 mg/dL

Q: And the Hb (9 h)?
A: 13.5 g/dL

Q: And the Ht (9 h)?
A: 38.6%

Q: What about the Lym (9 h) of the same compound?
A: 75%

Q: What about the MCH (9 h) of the same compound?
A: 21.1 pg

Q: And the MCHC (9 h)?
A: 35%

Q: What about the MCV (9 h) of the same compound?
A: 60.2 fL

Q: And the Mono (9 h)?
A: 2.6%

Q: What about the Neu (9 h) of the same compound?
A: 19.8%

Q: And the PT (9 h)?
A: 12.3 s

Q: What about the Plat (9 h) of the same compound?
A: 128.3 x10_4/uL

Q: And the RBC (9 h)?
A: 641.8 x10_4/ul

Q: And the Ret (9 h)?
A: 7%

Q: And the WBC (9 h)?
A: 90.9 x10_2/uL

Q: What about the KIDNEY_L (9 h) of the same compound?
A: 1 g

Q: What about the KIDNEY_R (9 h) of the same compound?
A: 0.9 g

Q: And the KIDNEY_TOTAL (9 h)?
A: 1.9 g

Q: And the LIVER (9 h)?
A: 8.7 g

Q: What about the A/G (9 h) of the same compound?
A: 1.6

Q: And the ALP (9 h)?
A: 849.2 IU/L

Q: What about the ALT (9 h) of the same compound?
A: 28.4 IU/L

Q: And the AST (9 h)?
A: 62.4 IU/L

Q: And the BUN (9 h)?
A: 9.4 mg/dL

Q: What about the CRE (9 h) of the same compound?
A: 0.3 mg/dL

Q: And the Ca (9 h)?
A: 10.7 mg/dL

Q: What about the Cl (9 h) of the same compound?
A: 103.6 meq/L

Q: And the DBIL (9 h)?
A: 0.068 mg/dL

Q: What about the GLC (9 h) of the same compound?
A: 198.8 mg/dL

Q: And the IP (9 h)?
A: 10.6 mg/dL

Q: And the K (9 h)?
A: 3.8 meq/L

Q: And the LDH (9 h)?
A: 175.8 IU/L

Q: And the Na (9 h)?
A: 142 meq/L

Q: And the PL (9 h)?
A: 129.4 mg/dL

Q: And the RALB (9 h)?
A: 3.3 g/dL

Q: And the TBIL (9 h)?
A: 0.1 mg/dL

Q: And the TC (9 h)?
A: 67.6 mg/dL

Q: What about the TG (9 h) of the same compound?
A: 46.6 mg/dL

Q: What about the TP (9 h) of the same compound?
A: 5.5 g/dL

Q: And the gamma-GTP (9 h)?
A: 1 IU/L

Q: What about the TERMINAL_BW (24 h) of the same compound?
A: 227.7 g

Q: What about the APTT (24 h) of the same compound?
A: 18.7 s

Q: And the Bas (24 h)?
A: 0.6%

Q: What about the Eos (24 h) of the same compound?
A: 0.8%

Q: What about the Fbg (24 h) of the same compound?
A: 216.6 mg/dL

Q: What about the Hb (24 h) of the same compound?
A: 13.7 g/dL

Q: What about the Ht (24 h) of the same compound?
A: 39.5%

Q: What about the Lym (24 h) of the same compound?
A: 80.8%

Q: And the MCH (24 h)?
A: 21.1 pg

Q: And the MCHC (24 h)?
A: 34.8%

Q: And the MCV (24 h)?
A: 60.6 fL

Q: And the Mono (24 h)?
A: 2.2%

Q: What about the Neu (24 h) of the same compound?
A: 14.8%

Q: What about the PT (24 h) of the same compound?
A: 11.9 s

Q: And the Plat (24 h)?
A: 129.9 x10_4/uL

Q: What about the RBC (24 h) of the same compound?
A: 651.8 x10_4/ul

Q: What about the Ret (24 h) of the same compound?
A: 6.2%

Q: What about the WBC (24 h) of the same compound?
A: 90.7 x10_2/uL

Q: What about the KIDNEY_L (24 h) of the same compound?
A: 1.1 g

Q: And the KIDNEY_R (24 h)?
A: 1.1 g

Q: And the KIDNEY_TOTAL (24 h)?
A: 2.1 g

Q: What about the LIVER (24 h) of the same compound?
A: 10.3 g

Q: What about the A/G (24 h) of the same compound?
A: 1.6

Q: And the ALP (24 h)?
A: 981.2 IU/L

Q: What about the ALT (24 h) of the same compound?
A: 31.2 IU/L

Q: What about the AST (24 h) of the same compound?
A: 70.6 IU/L

Q: What about the BUN (24 h) of the same compound?
A: 13.6 mg/dL

Q: What about the CRE (24 h) of the same compound?
A: 0.4 mg/dL

Q: And the Ca (24 h)?
A: 10.9 mg/dL

Q: And the Cl (24 h)?
A: 103 meq/L

Q: And the DBIL (24 h)?
A: 0.06 mg/dL

Q: What about the GLC (24 h) of the same compound?
A: 192.6 mg/dL

Q: What about the IP (24 h) of the same compound?
A: 7.5 mg/dL

Q: What about the K (24 h) of the same compound?
A: 4 meq/L

Q: What about the LDH (24 h) of the same compound?
A: 203.2 IU/L

Q: What about the Na (24 h) of the same compound?
A: 141.2 meq/L

Q: What about the PL (24 h) of the same compound?
A: 131.4 mg/dL

Q: And the RALB (24 h)?
A: 3.4 g/dL

Q: And the TBIL (24 h)?
A: 0.1 mg/dL

Q: And the TC (24 h)?
A: 70.2 mg/dL

Q: What about the TG (24 h) of the same compound?
A: 68.2 mg/dL

Q: And the TP (24 h)?
A: 5.5 g/dL

Q: And the gamma-GTP (24 h)?
A: 1.2 IU/L
